Test results taken from ChEMBL document CHEMBL1134410, “Discovery of novel N-phenylglycine derivatives as potent and selective beta(3)-adrenoceptor agonists for the treatment of frequent urination and urinary incontinence” (J Med Chem, 2001).

Tests used:
Type in all cases: functional
[1] = Concentration ratio of beta-1 (EC50) to beta3 (EC50)
[2] = Concentration ratio of beta-2 (EC50) to beta3 (EC50)
[3] = biological target: Beta-1 adrenergic receptor (Rattus norvegicus) (UniProt P18090); assay: Increase in BPM in isolated rat atria.
Chain of Beta-1 adrenergic receptor (Rattus norvegicus) (P18090 whole entry, looked up): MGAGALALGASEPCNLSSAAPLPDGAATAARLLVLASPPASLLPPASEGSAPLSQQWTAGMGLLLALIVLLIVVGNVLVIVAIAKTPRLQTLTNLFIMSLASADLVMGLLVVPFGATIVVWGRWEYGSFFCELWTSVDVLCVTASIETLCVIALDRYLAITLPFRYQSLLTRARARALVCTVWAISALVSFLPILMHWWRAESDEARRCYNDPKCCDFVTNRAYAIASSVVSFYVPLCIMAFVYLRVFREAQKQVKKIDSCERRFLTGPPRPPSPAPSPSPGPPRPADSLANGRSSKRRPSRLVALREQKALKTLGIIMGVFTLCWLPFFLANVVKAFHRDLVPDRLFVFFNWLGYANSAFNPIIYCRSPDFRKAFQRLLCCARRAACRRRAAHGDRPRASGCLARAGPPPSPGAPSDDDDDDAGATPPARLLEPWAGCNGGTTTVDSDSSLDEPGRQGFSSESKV

[4] = biological target: Beta-2 adrenergic receptor (Rattus norvegicus, UniProt P10608); assay: Agonistic activity towards beta-2 adrenoceptor. Mean concentration required to produce 50% inhibition of uterine contraction
Chain of Beta-2 adrenergic receptor (P10608 whole entry): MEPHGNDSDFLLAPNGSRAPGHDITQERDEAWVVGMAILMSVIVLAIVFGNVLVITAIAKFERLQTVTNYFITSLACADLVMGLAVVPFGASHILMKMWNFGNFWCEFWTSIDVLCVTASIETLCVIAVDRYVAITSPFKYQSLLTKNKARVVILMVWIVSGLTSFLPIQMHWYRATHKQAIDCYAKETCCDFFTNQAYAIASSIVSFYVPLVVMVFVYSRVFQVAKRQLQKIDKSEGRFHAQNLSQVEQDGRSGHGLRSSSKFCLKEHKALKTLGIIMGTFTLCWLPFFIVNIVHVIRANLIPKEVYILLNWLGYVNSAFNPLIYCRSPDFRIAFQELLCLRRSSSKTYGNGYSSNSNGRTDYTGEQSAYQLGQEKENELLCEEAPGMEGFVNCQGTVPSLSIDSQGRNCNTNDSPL

[5] = Concentration ratio of beta2 (EC50) to […]
[6] = Concentration ratio of beta-1 (EC50) to beta-3 (EC50)
[7] = test system: Rattus norvegicus; assay: In vivo dose required to lower the intrabladder pressure of the anesthetized rat by 50% over that before compound administration
[8] = organism: Rattus norvegicus; assay: In vitro concentration required to produce 50% relaxation of rat detrusor
[9] = organism: Mustela putorius furo; assay: In vitro concentration required to produce 50% relaxation of ferret detrusor

Structure (SMILES)	Selectivity [1]	Selectivity [2]	-Log EC20 [3]	IC50 [4] [nM]	also measured
C[C@H](NCCc1cc(Cl)c(N(C)CC(=O)O)c(Cl)c1)[C@H](O)c1ccc(O)cc1	> 625	> 625	> 4	–	-Log IC50 [4]: > 4
C[C@H](NCCc1ccc(NCC(=O)O)c(Br)c1)[C@H](O)c1ccc(O)cc1	14	2.5	5.1	1410	–
C[C@H](NCCc1ccc(N(CC(=O)O)Cc2ccccc2)cc1)[C@H](O)c1ccc(O)cc1	–	–	6.82	251	–
C[C@H](NCCc1ccc(NCC(=O)O)c(I)c1)[C@H](O)c1ccc(O)cc1	6.6	2.7	5.27	2190	–
C[C@H](Cc1ccc(OCC(=O)O)cc1)NC[C@H](O)c1cccc(Cl)c1	–	–	–	9.12	–
C[C@H](NCCc1ccc(N(C)CC(=O)O)cc1)[C@H](O)c1ccc(O)cc1	65	31	5.47	1580	–
C[C@H](NCCc1ccc(N(C)CC(=O)O)c(Cl)c1)[C@H](O)c1ccc(O)cc1	2270	> 9090	4.6	–	-Log IC50 [4]: > 4
C[C@H](NCCc1ccc(NCC(=O)O)c(Cl)c1)[C@H](O)c1ccc(O)cc1	2900	–	5.57	3310	Selectivity [5]: 3550
C[C@H](NCCc1cc(Cl)c(NCC(=O)O)cc1Cl)[C@H](O)c1ccc(O)cc1	21	21	5.89	1290	–
C[C@H](NCCc1ccc(NC(C)(C)C(=O)O)cc1Cl)[C@H](O)c1ccc(O)cc1	–	250	6.59	1410	Selectivity [6]: 46
C[C@H](NCCc1ccc(NC(C)(C)C(=O)O)cc1)[C@H](O)c1ccc(O)cc1	–	–	4.96	11000	–
C[C@H](Cc1ccc2c(c1)OC(C(=O)O)(C(=O)O)O2)NC[C@H](O)c1cccc(Cl)c1	–	–	4.77	–	–
CC(NCCc1ccc(O)cc1)C(O)c1ccc(O)cc1 (configuration not stated) [RITODRINE]	–	–	6.8	24	–
CC(C)NCC(O)c1ccc(O)c(O)c1 (configuration not stated) [ISOPROTERENOL]	–	–	–	–	ED50 [7]: 0.0006 mg/kg; EC50 [8]: 10 nM
C[C@H](NCCc1cc(Cl)c(NCC(=O)O)c(Cl)c1)[C@H](O)c1ccc(O)cc1	2070	1000	4.54	14100	ED50 [7]: 0.048 mg/kg; EC50 [9]: 14.1 nM; EC50 [8]: 191 nM
C[C@H](NCCc1cc(Br)c(NCC(=O)O)c(Br)c1)[C@H](O)c1ccc(O)cc1	235	32	4.72	2570	–
C[C@H](NCCc1ccc(NCC(=O)O)cc1)[C@H](O)c1ccc(O)cc1	54	27	5.89	646	–
C[C@H](NCCc1ccc(NCC(=O)O)cc1Cl)[C@H](O)c1ccc(O)cc1	15	8.6	6.96	61.7	–
C[C@H](NCCc1ccc(NCC(=O)O)c(Cl)c1Cl)[C@H](O)c1ccc(O)cc1	0.33	3.7	6.82	1700	–
C[C@H](NCCc1ccc(N(CC(=O)O)CC(=O)O)cc1)[C@H](O)c1ccc(O)cc1	–	–	4.57	282	–
